{"source": "patent US20200345746A1", "about": "“Oxazine Derivative for Use in the Prevention of Alzheimer's Disease in at Risk Patents” (Novartis AG, priority 2016, published 2020)", "key": {"Aβ40": {"system": "Aβ40", "assay": "Acute PK/PD in APOE4-TR mice: Aβ40 in brain", "assay_type": "in vivo, mouse", "conditions": "for Average Aβ40 brain ± SD: n = 6; for Aβ40 reduction vs vehicle, range over the doses: APOE4-TR mice, 3, 10 and 30 μmol/kg", "protocol": "Compound 1 was formulated as a suspension. Vehicle or compound was given by oral administration in a volume of 10 ml/kg once. Vehicle: 0.1% Tween80 in 0.5% Methylcellulose in water.\n(§1) Frozen mouse forebrains were weighed and homogenized in 9 volumes (w/v) of ice-cold TBS-Complete (20 mM Tris-HCl pH 7.4, 137 mM NaCl, 1× Complete [Protease Inhibitor Cocktail Tablets: 1 836 145, Roche Diagnostics GmbH, Penzberg, Germany]) by sonication (90% duty cycle, output control 5, 40-55 pulses, [Sonifier 450, Branson]). After homogenization several 50 μl aliquots were prepared for analysis and were stored at −80° C.\nEndogenous Aβ40 in mice was determined with the Meso Scale Discovery (MSD) 96-well MULTI-ARRAY human/rodent (4G8) Aβ40 Ultrasensitive Assay (#K110FTE-3, Meso Scale Discovery, Gaithersburg, USA). The assay was performed according to the manufacturer's instructions except for the calibration curve and the sample preparations. TritonX-100 (TX-100) soluble Aβ40 was extracted from forebrain with 1% TX-100 using a 50 μl aliquot of each 1:10 forebrain homogenate, mixed with 50 μl 2% TX-100 in TBS complete (20 mM Tris-HCl pH 7.4, 137 mM NaCl, 1× Complete [Protease Inhibitor Cocktail Tablets: 1 836 145, Roche Diagnostics GmbH, Penzberg Germany]) to reach a final concentration of 1% TX-100 and a 1:20 forebrain dilution. The samples were incubated for 15 min on ice and vortexed every 5 min. The samples were ultra-centrifuged (100000×g, 4° C., 15 min) and 50 μl of the clear supernatants were transferred to fresh tubes. For the Aβ40 assay the supernatants were further diluted 1:5 in 3% Blocker A solution (from kit) to a final forebrain dilution of 1:100 and applied to the plate.\nThe calibration curve was prepared in a corresponding dilution of 1% Blocker A solution spiked with synthetic Aβ1-40 peptide (1.56-100 pg/ml) except for non-transgenic mouse brain samples: In this case, the calibration curve was prepared in a correspondingly diluted APP knockout mouse forebrain spiked with synthetic Aβ1-40 peptide (1.56-100 pg/ml). For all samples and standards 25 μl were applied per well. For each determination duplicate wells were done. The mean values from the duplicate wells were used for calculations."}, "Aβ42": {"system": "Aβ42", "assay": "Formic acid soluble Aβ42 in APP23 mouse forebrain", "assay_type": "in vivo", "protocol": "as §1\nFifty microliter of forebrain homogenate was mixed with 116.6 μl 100% formic acid, resulting in a final formic acid concentration of 70%. Samples were stored on ice and vortexed every 5 minutes. For neutralization, 50 μl of the mixture were pipetted into a new tube, and 950 μl of 1 M Tris base, containing 1× Complete Protease inhibitor, was added. Tubes were stored at room temperature overnight and then centrifuged for 15 minutes at 14000 rpm in an Eppendorf Microzentrifuge at 4° C. From the top layer, 100 μl are removed and mixed with 100 μl of 3% Blocker A solution (part of the MesoScale assay kit). This sample was either directly applied to the assay plate (dilution 1:1332) or further diluted in 1% Blocker A solution."}, "IBA1 positive microglia": {"system": "IBA1 positive microglia", "assay": "IBA1 positive microglia in APP23 mice", "assay_type": "in vivo, mouse", "conditions": "for Distal IBA1+ area / Non-plaque-associated IBA1+ area* / Plaque-associated IBA1+ area / Proximal IBA1+ area / Total IBA1+ area: normalized by total area, mean + SEM", "protocol": "Amyloid plaques were stained using the same antibody and the microglia cells were detected using a rabbit anti-IBA1 antibody (reference 019-19741) from Wako Chemicals GmbH (Neuss, Germany) and diluted at 1/200 in antibody diluent. The staining protocol was exactly similar to the protocol for amyloid-beta plaques and astrocytes. The slides were scanned with the same settings.\nFor the beta-amyloid plaque and neuroinflammation analysis, the following sequence of steps was performed: • Slides were scanned with Hamamatsu Nanozoomer at 40× magnification. For each fluorescence labelling (DAPI, FITC and TRITC), a separate image was created • Manually outline ROIs (regions of interest) for defining cortex in brain sections for Aβ plaque assessment on the green FITC channel image, then use the resulting outline also for the other two channel images (copy resulting xml files) • Run the in-house developed ImageScope (V12.1.0.5029, Aperio Inc., USA) plug-in for creation and export of *.tif image tiles (at 10× magnification) for each of the 3 fluorescence channels\nImage Batch Processing: • Obtain the combined true color image (DAPI, FITC, TRITC) for each section through accessing each individual fluorescence channel image • Segmentation of valid sample (within outlined ROI) from black unstained background • Apply adaptive thresholding technique for segmentation of objects in green channel image\n(FITC-labeled Aβ plaques) • Separation of touching objects for correct subsequent individual object analysis after elimination of too small debris showing signal in the green (FITC) channel • Segmentation of TRITC-labeled objects in red channel (specific for GFAP or Iba1 staining indicating astrocytes or microglia) through morphological tophat transformation and thresholding • Feature based object classification\nComputation of several morphometric and densitometric features for valid plaques • Number of plaques • “Specific optical density” which has been described to reflect the amount of protein (antigen) concentration, based on measuring and using the staining intensity of an appropriate antibody in a non-linear way (Rahier et al., 1989; Ruifrok et al., 2001) • assessment of “plaque-associated GFAP or Iba1” based on the ratio of TRITC+ signal vs plaque area, “proximal GFAP or Iba1” based on ratio of TRITC+ signal within dilation ring around plaque"}, "[1]": {"assay": "Drug-drug interaction study: PK of Compound 1 with the strong CYP3A4 inducer rifampicin", "assay_type": "in vivo, human", "conditions": "healthy volunteers, with rifampicin 600 mg q.d. vs Compound 1 alone"}, "[2]": {"conditions": "APOE4-TR mice, 30 μmol/kg acute"}}}
{"smiles": "C[C@@]1(c2nc(NC(=O)c3ncc(C(F)(F)F)cc3Cl)ccc2F)CO[C@@](C)(C(F)(F)F)C(N)=N1", "note": "[Compound 1, N-(6-((3R,6R)-5-amino-3,6-dimethyl-6-(trifluoromethyl)-3,6-dihydro-2H-1,4-oxazin-3-yl)-5-fluoropyridin-2-yl)-3-chloro-5-(trifluoromethyl)picolinamide]", "values": [{"measurement": "Mini AUEC (brain Aβ40)", "setting": "Aβ40; APOE4-TR mice, 3 μmol/kg acute", "value": 32, "unit": "%"}, {"measurement": "Average Aβ40 brain ± SD", "setting": "Aβ40; APOE4-TR mice, 3 μmol/kg acute p.o., 4 h", "value": "0.114 ± 0.024", "unit": "pmol/g"}, {"measurement": "Average Aβ40 brain ± SD", "setting": "Aβ40; APOE4-TR mice, 3 μmol/kg acute p.o., 24 h", "value": "0.160 ± 0.033", "unit": "pmol/g"}, {"measurement": "% reduction vs vehicle (brain Aβ40)", "setting": "Aβ40; APOE4-TR mice, 3 μmol/kg acute, 4 h", "value": 43, "unit": "%"}, {"measurement": "% reduction vs vehicle (brain Aβ40)", "setting": "Aβ40; APOE4-TR mice, 3 μmol/kg acute, 24 h", "value": 20, "unit": "%"}, {"measurement": "Mini AUEC (brain Aβ40)", "setting": "Aβ40; APOE4-TR mice, 10 μmol/kg acute", "value": 47, "unit": "%"}, {"measurement": "Average Aβ40 brain ± SD", "setting": "Aβ40; APOE4-TR mice, 10 μmol/kg acute p.o., 4 h", "value": "0.074 ± 0.014", "unit": "pmol/g"}, {"measurement": "Average Aβ40 brain ± SD", "setting": "Aβ40; APOE4-TR mice, 10 μmol/kg acute p.o., 24 h", "value": "0.139 ± 0.041", "unit": "pmol/g"}, {"measurement": "% reduction vs vehicle (brain Aβ40)", "setting": "Aβ40; APOE4-TR mice, 10 μmol/kg acute, 4 h", "value": 63, "unit": "%"}, {"measurement": "% reduction vs vehicle (brain Aβ40)", "setting": "Aβ40; APOE4-TR mice, 10 μmol/kg acute, 24 h", "value": 31, "unit": "%"}, {"measurement": "Mini AUEC (brain Aβ40)", "setting": "Aβ40; [2]", "value": 72, "unit": "%"}, {"measurement": "maximal effect on Aβ reduction in the brain", "setting": "Aβ40; [2]", "value": "> 70", "unit": "%"}, {"measurement": "Average Aβ40 brain ± SD", "setting": "Aβ40; APOE4-TR mice, 30 μmol/kg acute p.o., 4 h", "value": "0.046 ± 0.006", "unit": "pmol/g"}, {"measurement": "Average Aβ40 brain ± SD", "setting": "Aβ40; APOE4-TR mice, 30 μmol/kg acute p.o., 24 h", "value": "0.068 ± 0.021", "unit": "pmol/g"}, {"measurement": "% reduction vs vehicle (brain Aβ40)", "setting": "Aβ40; APOE4-TR mice, 30 μmol/kg acute, 4 h", "value": 77, "unit": "%"}, {"measurement": "% reduction vs vehicle (brain Aβ40)", "setting": "Aβ40; APOE4-TR mice, 30 μmol/kg acute, 24 h", "value": 66, "unit": "%"}, {"measurement": "Aβ40 reduction vs vehicle, range over the doses", "setting": "Aβ40; 4h", "value": "43-77%"}, {"measurement": "Aβ40 reduction vs vehicle, range over the doses", "setting": "Aβ40; 24h", "value": "20-66%"}, {"measurement": "Formic acid soluble Aβ42 change vs vehicle", "setting": "Aβ42; APP23, 0.03 g/kg vs vehicle", "value": "−16.3", "unit": "%"}, {"measurement": "Formic acid soluble Aβ42 change vs vehicle", "setting": "Aβ42; APP23, 0.3 g/kg vs vehicle", "value": "−86.2", "unit": "%"}, {"measurement": "Distal IBA1+ area", "setting": "IBA1 positive microglia; APP23, 0.03 g/kg food", "value": "2.74 ± 0.42"}, {"measurement": "Non-plaque-associated IBA1+ area*", "setting": "IBA1 positive microglia; APP23, 0.03 g/kg food", "value": "3.98 ± 0.54"}, {"measurement": "Plaque-associated IBA1+ area", "setting": "IBA1 positive microglia; APP23, 0.03 g/kg food", "value": "1.79 ± 0.51"}, {"measurement": "Proximal IBA1+ area", "setting": "IBA1 positive microglia; APP23, 0.03 g/kg food", "value": "1.23 ± 0.22"}, {"measurement": "Total IBA1+ area", "setting": "IBA1 positive microglia; APP23, 0.03 g/kg food", "value": "5.76 ± 0.83"}, {"measurement": "Distal IBA1+ area, change vs vehicle", "setting": "IBA1 positive microglia; APP23, 0.03 g/kg vs vehicle", "value": "−28.9", "unit": "%"}, {"measurement": "Non-plaque-associated IBA1+ area*, change vs vehicle", "setting": "IBA1 positive microglia; APP23, 0.03 g/kg vs vehicle", "value": "−39.2", "unit": "%"}, {"measurement": "Plaque-associated IBA1+ area, change vs vehicle", "setting": "IBA1 positive microglia; APP23, 0.03 g/kg vs vehicle", "value": "−40.5", "unit": "%"}, {"measurement": "Proximal IBA1+ area, change vs vehicle", "setting": "IBA1 positive microglia; APP23, 0.03 g/kg vs vehicle", "value": "−47.4", "unit": "%"}, {"measurement": "Total IBA1+ area, change vs vehicle", "setting": "IBA1 positive microglia; APP23, 0.03 g/kg vs vehicle", "value": "−37.4", "unit": "%"}, {"measurement": "Distal IBA1+ area", "setting": "IBA1 positive microglia; APP23, 0.3 g/kg food", "value": "5.05 ± 0.98"}, {"measurement": "Non-plaque-associated IBA1+ area*", "setting": "IBA1 positive microglia; APP23, 0.3 g/kg food", "value": "5.70 ± 1.00"}, {"measurement": "Plaque-associated IBA1+ area", "setting": "IBA1 positive microglia; APP23, 0.3 g/kg food", "value": "0.88 ± 0.19"}, {"measurement": "Proximal IBA1+ area", "setting": "IBA1 positive microglia; APP23, 0.3 g/kg food", "value": "0.65 ± 0.05"}, {"measurement": "Total IBA1+ area", "setting": "IBA1 positive microglia; APP23, 0.3 g/kg food", "value": "6.31 ± 0.92"}, {"measurement": "Distal IBA1+ area, change vs vehicle", "setting": "IBA1 positive microglia; APP23, 0.3 g/kg vs vehicle", "value": "+30.7%"}, {"measurement": "Non-plaque-associated IBA1+ area*, change vs vehicle", "setting": "IBA1 positive microglia; APP23, 0.3 g/kg vs vehicle", "value": "−8.2", "unit": "%"}, {"measurement": "Plaque-associated IBA1+ area, change vs vehicle", "setting": "IBA1 positive microglia; APP23, 0.3 g/kg vs vehicle", "value": "−70.6", "unit": "%"}, {"measurement": "Proximal IBA1+ area, change vs vehicle", "setting": "IBA1 positive microglia; APP23, 0.3 g/kg vs vehicle", "value": "−72.2", "unit": "%"}, {"measurement": "Total IBA1+ area, change vs vehicle", "setting": "IBA1 positive microglia; APP23, 0.3 g/kg vs vehicle", "value": "−28.5", "unit": "%"}, {"measurement": "decrease of mean AUC of Compound 1", "setting": "[1]", "value": "5-6 fold"}, {"measurement": "decrease of mean Cmax of Compound 1", "setting": "[1]", "value": 2.5, "unit": "fold"}]}
